Assay results reported in publication PMC11822212, “High-throughput screening identifies Aurora kinase B as a critical therapeutic target for Merkel cell carcinoma” (Nature Communications, 2025).
Structures can show the parent of a compound that is named as a salt. Where two headings read alike, the source gives them in different places.

Experiments:
[1] = system: six MCC cell lines and four control cell lines; experiment: qHTS cell viability, all 10 cell lines screened; assay type: cell-based
[2] = system: VN-MCC cell lines (MCC13, MCC26, UISO); experiment: qHTS cell viability, VN-MCC cell lines as a group (mean AUC, VN.MCC.avg); assay type: cell-based, human
[3] = system: control cell lines (HACAT, HEK293T, CRL-7250, NIH-3T3); experiment: qHTS cell viability, control cell lines as a group (mean AUC, Control.avg); assay type: cell-based
WAGA cells (VP-MCC) = experiment: qHTS cell viability (CellTiter-Glo, 72 h; primary and follow-up small molecule screen); assay type: cell-based, human
MKL-2 cells (VP-MCC) = experiment: as above; assay type: cell-based, human
HACAT cells = experiment: qHTS cell viability (CellTiter-Glo, 72 h; primary screen), control cell line; assay type: cell-based, human
[4] = system: VP-MCC cell lines (WAGA, MKL-1, MKL-2); experiment: qHTS cell viability, VP-MCC cell lines as a group (mean AUC, VP.MCC.avg); assay type: cell-based, human
MCC13 cells (VN-MCC) = experiment: qHTS cell viability (CellTiter-Glo, 72 h; primary and follow-up small molecule screen); assay type: cell-based, human
UISO cells (VN-MCC) = experiment: as above; assay type: cell-based, human
[5] = system: MCC cell lines (WAGA, MKL-1, MKL-2, MCC13, MCC26, UISO); experiment: qHTS cell viability, all six MCC cell lines as a group (mean AUC, MCC.avg); assay type: cell-based, human
CRL-7250 cells = experiment: qHTS cell viability (CellTiter-Glo, 72 h; primary screen), control cell line; assay type: cell-based
MCC26 cells (VN-MCC) = experiment: qHTS cell viability (CellTiter-Glo, 72 h; primary and follow-up small molecule screen); assay type: cell-based, human
HEK293T cells = experiment: qHTS cell viability (CellTiter-Glo, 72 h; primary screen), control cell line; assay type: cell-based, human
NIH-3T3 cells = experiment: as above; assay type: cell-based, mouse
MKL-1 cells (VP-MCC) = experiment: qHTS cell viability (CellTiter-Glo, 72 h; primary and follow-up small molecule screen); assay type: cell-based, human

CN(C)C(=O)Nc1ccc(Cl)c(Cl)c1 [Diuron]
Control-MCC [1]: 150.329 | Control-VN-MCC [2]: 17.4511 | VN-MCC_Avg_AUC [2]: 460.449 | Control_Avg_AUC [3]: 477.9 | Area under the dose-response curve (AUC) WAGA Replicate 1 (WAGA cells (VP-MCC)): 487.4 | Area under the dose-response curve (AUC) WAGA Replicate 2 (WAGA cells (VP-MCC)): 506.5 | Area under the dose-response curve (AUC) WAGA Replicate 3 (WAGA cells (VP-MCC)): 435.9 | WAGA_AUC (WAGA cells (VP-MCC)): 128.39 | Area under the dose-response curve (AUC) MKL-2 Replicate 1 (MKL-2 cells (VP-MCC)): 465.6 | Area under the dose-response curve (AUC) MKL-2 Replicate 2 (MKL-2 cells (VP-MCC)): 447.9 | Area under the dose-response curve (AUC) MKL-2 Replicate 3 (MKL-2 cells (VP-MCC)): 414.0 | MKL2_AUC (MKL-2 cells (VP-MCC)): 290.674 | HACAT_AUC (HACAT cells): 457.965 | Control-VP-MCC [4]: 283.207 | VP-MCC_Avg_AUC [4]: 194.692 | Area under the dose-response curve (AUC) MCC13 Replicate 1 (MCC13 cells (VN-MCC)): 429.4 | Area under the dose-response curve (AUC) MCC13 Replicate 2 (MCC13 cells (VN-MCC)): 471.6 | Area under the dose-response curve (AUC) MCC13 Replicate 3 (MCC13 cells (VN-MCC)): 443.0 | MCC13_AUC (MCC13 cells (VN-MCC)): 486.707 | Area under the dose-response curve (AUC) UISO Replicate 1 (UISO cells (VN-MCC)): 424.2 | Area under the dose-response curve (AUC) UISO Replicate 2 (UISO cells (VN-MCC)): 442.5 | Area under the dose-response curve (AUC) UISO Replicate 3 (UISO cells (VN-MCC)): 396.8 | UISO_AUC (UISO cells (VN-MCC)): 432.63 | MCC_Avg_AUC [5]: 327.57 | CRL7250_AUC (CRL-7250 cells): 483.042 | Area under the dose-response curve (AUC) MCC26 Replicate 1 (MCC26 cells (VN-MCC)): 419.4 | Area under the dose-response curve (AUC) MCC26 Replicate 2 (MCC26 cells (VN-MCC)): 420.5 | Area under the dose-response curve (AUC) MCC26 Replicate 3 (MCC26 cells (VN-MCC)): 426.9 | MCC26_AUC (MCC26 cells (VN-MCC)): 462.009 | HEK293T_AUC (HEK293T cells): 497.019 | NIH3T3_AUC (NIH-3T3 cells): 473.572 | Area under the dose-response curve (AUC) MKL-1 Replicate 1 (MKL-1 cells (VP-MCC)): 459.9 | Area under the dose-response curve (AUC) MKL-1 Replicate 2 (MKL-1 cells (VP-MCC)): 477.0 | Area under the dose-response curve (AUC) MKL-1 Replicate 3 (MKL-1 cells (VP-MCC)): 426.1 | MKL1_AUC (MKL-1 cells (VP-MCC)): 165.013

CN(CC1(C)CCCO1)S(=O)(=O)c1ccc(Cl)c(S(N)(=O)=O)c1 (stereo not drawn) [Mefruside]
Control-MCC ([1]; NPC library, therapeutic window: Control avg AUC minus MCC avg AUC): 16.8852 | VN-MCC_Avg_AUC ([2]; NPC library, mean AUC of VN-MCC cell lines): 490.65 | Control-VN-MCC ([2]; NPC library, therapeutic window: Control avg AUC minus VN-MCC avg AUC): -22.9615 | Control_Avg_AUC ([3]; NPC library, mean AUC of control cell lines): 467.688 | WAGA_AUC (WAGA cells (VP-MCC); NPC library, qHTS dose-response AUC, WAGA): 408.321 | MKL2_AUC (MKL-2 cells (VP-MCC); NPC library, qHTS dose-response AUC, MKL2): 389.363 | HACAT_AUC (HACAT cells; NPC library, qHTS dose-response AUC, HACAT control): 466.668 | VP-MCC_Avg_AUC ([4]; NPC library, mean AUC of VP-MCC cell lines): 410.957 | Control-VP-MCC ([4]; NPC library, therapeutic window: Control avg AUC minus VP-MCC avg AUC): 56.732 | MCC13_AUC (MCC13 cells (VN-MCC); NPC library, qHTS dose-response AUC, MCC13): 487.176 | UISO_AUC (UISO cells (VN-MCC); NPC library, qHTS dose-response AUC, UISO): 490.08 | MCC_Avg_AUC ([5]; NPC library, mean AUC of six MCC cell lines): 450.803 | CRL7250_AUC (CRL-7250 cells; NPC library, qHTS dose-response AUC, CRL7250 control): 471.553 | MCC26_AUC (MCC26 cells (VN-MCC); NPC library, qHTS dose-response AUC, MCC26): 494.694 | HEK293T_AUC (HEK293T cells; NPC library, qHTS dose-response AUC, HEK293T control): 446.841 | NIH3T3_AUC (NIH-3T3 cells; NPC library, qHTS dose-response AUC, NIH3T3 control): 485.692 | MKL1_AUC (MKL-1 cells (VP-MCC); NPC library, qHTS dose-response AUC, MKL1): 435.185

C#CCN(C)[C@H](C)Cc1ccccc1 [Selegiline hydrochloride]
Control-MCC [1]: 26.4329 | Control-VN-MCC [2]: 1.446 | VN-MCC_Avg_AUC [2]: 458.075 | Control_Avg_AUC [3]: 459.521 | WAGA_AUC (WAGA cells (VP-MCC)): 431.581 | MKL2_AUC (MKL-2 cells (VP-MCC)): 391.028 | HACAT_AUC (HACAT cells): 471.82 | Control-VP-MCC [4]: 51.4197 | VP-MCC_Avg_AUC [4]: 408.101 | MCC13_AUC (MCC13 cells (VN-MCC)): 453.711 | UISO_AUC (UISO cells (VN-MCC)): 478.192 | MCC_Avg_AUC [5]: 433.088 | CRL7250_AUC (CRL-7250 cells): 455.418 | MCC26_AUC (MCC26 cells (VN-MCC)): 442.321 | HEK293T_AUC (HEK293T cells): 439.797 | NIH3T3_AUC (NIH-3T3 cells): 471.047 | MKL1_AUC (MKL-1 cells (VP-MCC)): 401.694
